The record followed here is patent US20220235064A1 (WELLMARKER BIO CO., LTD., priority 2019, published 2022).

pIC50: −log10 of the molar value.

In experiment [1] the test system is cancer cell line KM12C, in which RON is activated. As to the kind of experiment: Cell growth inhibitory ability in RON-activated cancer cell line (MTS). Format: cell-based. Particulars: Homo sapiens, 48 hours, absorbance 490 nm. The method in brief: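 KM12C cells (RON-activated, MEM with FBS) exposed to compound […] for 48 h. MTS added 24 h after treatment ended, incubated 4 h at 37° C, absorbance read at 490 nm. IC50 derived from absorbance.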

Experiment [2] shares this test system. As to the kind of experiment: Cell-killing efficacy in RON-activated cancer cell line (trypan blue). It is filed as cell-based. The following applies: for cytotoxicity at 1 µM / cytotoxicity at 5 µM: Homo sapiens, 48 hours, trypan blue, n=2, read-out: Cell death (%) Cancer cell line KM12C; for cell-killing effect (in words): as compared with the positive control. Put shortly: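 KM12C cells seeded 1×10^5 per 60 mm^2 dish in MEM + 10% FBS, then exposed 24 h later to compound at 1 μM or 5 μM for 48 h.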

Experiment [3] concerns cancer cell line SW620, in which mutated RON (Δ155) is expressed. As to the kind of experiment: Cell-killing efficacy in RON-mutated cancer cell line SW620 (trypan blue). It is filed as cell-based. The following applies: for cytotoxicity at 1 µM / cytotoxicity at 5 µM: Homo sapiens, SW-620, 48 hours, trypan blue, n=2, read-out: Cell death (%) Cancer cell line SW620; for cell-killing effect (in words): SW620, as compared with the positive control. As for the experimental part: (§1) Experimental Example 4: Measurement of Cell-Killing Efficacy of Example Compounds in RON-Mutated Cancer Cell Lines
(§2) Each of two colorectal cancer cell lines, that is, the cancer cell line HT29 (30038, KCLB, RPMI+10% FBS), in which mutated RON (Δ160) is expressed, and the cancer cell line SW620 (CCL-227, ATCC, RPMI+10% FBS), in which mutated RON (Δ155) is expressed, was dispensed into each 60 mm^2 dish at 1×10^5 cells. After 24 hours, the dish was treated with each of the example compounds at a concentration of 1 μM or 5 μM while performing medium exchange, and then reaction was allowed to proceed for 48 hours. After 48 hours, centrifugation was performed for 4 minutes at 1,500 rpm to collect cells and cell fluid. Thereafter, living cells and dead cells were quantified (n=2) using a trypan blue solution (15250-061, Gibco), and statistical analysis was performed using Excel-T-test. Here, as a negative control, only a solvent (0.10% DMSO) was used; and as a positive control, N-(4-(2-amino-3-chloropyridin-4-yloxy)-3-fluorophenyl)-4-ethoxy-1-(4-fluorophenyl)-2-oxo-1,2-dihydropyridine-3-carboxamide, which is the compound of Example 1 in WO 2008/058229 A1, was used.

Experiment [4] concerns the target T1, RON tyrosine kinase (Homo sapiens, UniProt Q04912).
T1 construct: purchased Carna Bioscience
The experiment in a line: Enzyme inhibitory activity against RON tyrosine kinase (TR-FRET). It is filed as biochemical. The following applies: RON (Carna Bioscience). The method in brief:
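Recombinant RON was preincubated with compound for 15 min at RT in 50 mM HEPES pH 7.5, 10 mM MgCl2, 1 mM EGTA, 2 mM DTT, 0.01% Tween-20. Enzyme (0.4 nM), ATP (60 μM) and tyrosine peptide (400 nM) were prepared at 2×, 4× and 4× final. After 60 min at RT, EDTA/Eu-anti-phosphotyrosine stop; IC50 from 665 nm TR-FRET emission.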
On the technique in general: TR-FRET usually uses a lanthanide donor and a delayed reading to cut background.

For experiment [5], the system named is cancer cell line HT29, in which mutated RON (Δ160) is expressed. As to the kind of experiment: Cell-killing efficacy in RON-mutated cancer cell line HT29 (trypan blue). Format: cell-based. Particulars: for cytotoxicity at 1 µM / cytotoxicity at 5 µM: Homo sapiens, HT-29, 48 hours, trypan blue, n=2, read-out: Cell death (%) Cancer cell line HT29; for cell-killing effect (in words): HT29, as compared with the positive control. On the procedure:
as §1, §2

T1 sequence (Q04912 25-1400): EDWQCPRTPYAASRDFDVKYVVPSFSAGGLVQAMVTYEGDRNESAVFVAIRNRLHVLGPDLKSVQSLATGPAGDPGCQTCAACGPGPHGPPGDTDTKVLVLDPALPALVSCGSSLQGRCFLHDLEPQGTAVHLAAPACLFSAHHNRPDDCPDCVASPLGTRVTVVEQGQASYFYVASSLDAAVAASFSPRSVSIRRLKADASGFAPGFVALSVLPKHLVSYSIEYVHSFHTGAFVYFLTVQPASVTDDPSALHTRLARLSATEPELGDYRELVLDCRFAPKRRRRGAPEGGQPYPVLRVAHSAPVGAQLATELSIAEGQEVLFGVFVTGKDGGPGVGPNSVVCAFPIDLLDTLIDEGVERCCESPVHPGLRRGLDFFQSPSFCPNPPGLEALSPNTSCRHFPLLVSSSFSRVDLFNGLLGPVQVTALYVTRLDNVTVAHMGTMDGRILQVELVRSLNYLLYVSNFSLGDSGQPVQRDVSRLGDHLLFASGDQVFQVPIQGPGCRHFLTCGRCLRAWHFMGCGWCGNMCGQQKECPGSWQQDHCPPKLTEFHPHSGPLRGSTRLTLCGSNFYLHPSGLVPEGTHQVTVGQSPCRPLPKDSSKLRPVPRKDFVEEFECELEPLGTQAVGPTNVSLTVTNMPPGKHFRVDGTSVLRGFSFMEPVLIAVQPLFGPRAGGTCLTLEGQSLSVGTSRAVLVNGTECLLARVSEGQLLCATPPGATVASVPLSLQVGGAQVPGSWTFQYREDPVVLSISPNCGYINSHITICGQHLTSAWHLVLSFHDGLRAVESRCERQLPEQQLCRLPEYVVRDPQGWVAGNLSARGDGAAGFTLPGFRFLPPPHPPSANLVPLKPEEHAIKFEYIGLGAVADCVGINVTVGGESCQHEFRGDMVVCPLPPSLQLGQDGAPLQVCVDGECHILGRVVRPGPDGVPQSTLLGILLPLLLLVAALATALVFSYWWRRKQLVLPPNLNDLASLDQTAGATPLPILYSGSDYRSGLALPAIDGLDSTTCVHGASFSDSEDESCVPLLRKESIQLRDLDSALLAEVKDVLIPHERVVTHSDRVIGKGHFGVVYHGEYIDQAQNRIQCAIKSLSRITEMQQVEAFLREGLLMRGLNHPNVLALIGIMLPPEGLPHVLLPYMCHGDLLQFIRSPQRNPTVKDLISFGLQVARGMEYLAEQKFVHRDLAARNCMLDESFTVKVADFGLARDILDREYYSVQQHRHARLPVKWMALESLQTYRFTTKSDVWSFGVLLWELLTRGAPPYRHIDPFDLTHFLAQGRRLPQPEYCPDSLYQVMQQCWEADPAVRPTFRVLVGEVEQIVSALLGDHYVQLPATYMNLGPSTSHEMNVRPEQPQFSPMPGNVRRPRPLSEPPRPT

For orientation: pIC50 means −log10 of the IC50, conventionally taken in molar units. On to `CN(C)C1CN(Cc2ccc(-c3cc4nccc(Oc5ccc(NC(=O)c6c7c(cn(-c8ccc(F)cc8)c6=O)CCO7)cc5F)c4s3)nc2)C1` [Example 20, N-(4-((2-(5-((3-(Dimethylamino)azetidin-1-yl)methyl)pyridin-2-yl)thieno[3,2-b]pyridine-7-yl)oxy)-3-fluorophenyl)-5-(4-fluorophenyl)-6-oxo-2,3,5,6-tetrahydrofuro[3,2-c]pyridine-7-carboxamide], for which the pIC50 in experiment [1] was 9.00. In experiment [2], the cytotoxicity at 1 µM was determined as 8.12% and the cytotoxicity at 5 µM came to 35.5%. Further, in experiment [3], the cytotoxicity at 1 µM turned out to be 17.4% and the cytotoxicity at 5 µM amounted to 91.2%.

Consider `COC1CCN(Cc2ccc(-c3cc4nccc(Oc5ccc(NC(=O)c6c7c(cn(-c8ccc(F)cc8)c6=O)CCO7)cc5F)c4s3)nc2)CC1` [Example 31, N-(3-Fluoro-4-((2-(5-((4-methoxypiperidin-1-yl)methyl)pyridin-2-yl)thieno[3,2-b]pyridin-7-yl)oxy)phenyl)-5-(4-fluorophenyl)-6-oxo-2,3,5,6-tetrahydrofuro[3,2-c]pyridine-7-carboxamide], for which the pIC50 in experiment [1] is 8.70. For the same compound, the cytotoxicity at 1 µM in experiment [2] came to 40.9%; in experiment [3] it was 15.4%. Further, the cytotoxicity at 5 µM in experiment [2] was 52%; in experiment [3], 47%.

With `COc1cc2nccc(Oc3ccc(NC(=O)c4c5c(cn(-c6ccc(F)cc6)c4=O)CCO5)cc3F)c2cc1OC` [Example 40, N-(4-((6,7-Dimethoxyquinolin-4-yl)oxy)-3-fluorophenyl)-5-(4-fluorophenyl)-6-oxo-2,3,5,6-tetrahydrofuro[3,2-c]pyridine-7-carboxamide], the pIC50 in experiment [4] was 8.49. Further, the cytotoxicity at 1 µM in experiment [2] came to 29.8%; in experiment [5], 9.17%; in experiment [3], 8.5%. Further, the cytotoxicity at 5 µM worked out at 37.3% in experiment [2], 22.9% in experiment [5] and 9.2% in experiment [3].

In experiment [1], `COc1cc2c(Oc3ccc(NC(=O)c4c5c(cn(-c6ccc(F)cc6)c4=O)CCO5)cc3F)ccnc2cc1OCCCN1CC(F)(F)C1` [Example 87, N-(4-((7-(3-(3,3-Difluoroazetidin-1-yl)propoxy)-6-methoxyquinolin-4-yl)oxy)-3-fluorophenyl)-5-(4-fluorophenyl)-6-oxo-2,3,5,6-tetrahydrofuro[3,2-c]pyridine-7-carboxamide] gave a pIC50 of 8.52. Moreover, the cytotoxicity at 1 µM in experiment [2] was found to be 40.7%; in experiment [3], 77.1%. The values for the cytotoxicity at 5 µM in experiment [2] and in experiment [3] were 60.1% and 70.5%, respectively.

`COc1cc2c(Oc3ccc(NC(=O)c4c5c(cn(-c6ccc(F)cc6)c4=O)CCO5)cc3F)ccnc2cc1OCCCN1CCC(F)(F)CC1` [Example 105, N-(4-((7-(3-(4,4-Difluoropiperidin-1-yl)propoxy)-6-methoxyquinolin-4-yl)oxy)-3-fluorophenyl)-5-(4-fluorophenyl)-6-oxo-2,3,5,6-tetrahydrofuro[3,2-c]pyridine-7-carboxamide]: in experiment [1], the pIC50 was 8.40. Further, the figures for the cytotoxicity at 1 µM in experiment [2] and in experiment [3] were 33.8% and 60.4%, respectively. Besides, the cytotoxicity at 5 µM turned out to be 45.2% in experiment [2] and 84.1% in experiment [3].

For `COc1cc2c(Oc3ccc(NC(=O)c4c5c(cn(-c6ccc(F)cc6)c4=O)CCO5)cc3F)ccnc2cc1OCCN1CC(F)(F)C1` [Example 124, N-(4-((7-(2-(3,3-difluoroazetidin-1-yl)ethoxy)-6-methoxyquinolin-4-yl)oxy)-3-fluorophenyl)-5-(4-fluorophenyl)-6-oxo-2,3,5,6-tetrahydrofuro[3,2-c]pyridine-7-carboxamide], in experiment [1], the pIC50 was 8.30. For the same compound, the cytotoxicity at 1 µM worked out at 16.3% in experiment [2], 15.7% in experiment [5] and 6.2% in experiment [3]. For the same compound, the cytotoxicity at 5 µM in experiment [2] is 57.3%; in experiment [5], 62.1%; in experiment [3], 98.7%.

Consider `COc1cc2c(Oc3ccc(NC(=O)c4c5c(cn(-c6ccc(F)cc6)c4=O)CCO5)cc3F)ccnc2cc1OCCN1CC(C#N)C1` [Example 125], for which the pIC50 in experiment [1] is 8.52. Moreover, in experiment [2], the cytotoxicity at 1 µM turned out to be 22.3%, the cytotoxicity at 5 µM worked out at 39.6% and the “cell-killing effect (in words)” value was “high cell-killing effect”. Also, in experiment [5], the “cell-killing effect (in words)” value is “high cell-killing effect”, the cytotoxicity at 1 µM was 39.4% and the cytotoxicity at 5 µM amounted to 67.8%. Moreover, in experiment [3], the cytotoxicity at 1 µM stood at 60.9%, the cytotoxicity at 5 µM worked out at 91.5% and the “cell-killing effect (in words)” value is on record as “high cell-killing effect”.

In turn, `COc1cc2c(Oc3ccc(NC(=O)c4c5c(cn(-c6ccc(F)cc6)c4=O)CCO5)cc3F)ccnc2cc1OCCN1CCC(F)(F)C1` [Example 134, N-(4-((7-(2-(3,3-Difluoropyrrolidin-1-yl)ethoxy)-6-methoxyquinolin-4-yl)oxy)-3-fluorophenyl)-5-(4-fluorophenyl)-6-oxo-2,3,5,6-tetrahydrofuro[3,2-c]pyridine-7-carboxamide] had a pIC50 in experiment [1] of 8.70. Further, the cytotoxicity at 1 µM in experiment [2] amounted to 35.5%; in experiment [5] it was 47%; in experiment [3], 76.1%. Moreover, the cytotoxicity at 5 µM was 47.4% in experiment [2], 82.2% in experiment [5] and 82.8% in experiment [3]. For the same compound, the “cell-killing effect (in words)” value in experiment [2], in experiment [5] and in experiment [3] was “high cell-killing effect” each time.

`COc1cc2c(Oc3ccc(NC(=O)c4c5c(cn(-c6ccc(F)cc6)c4=O)CCO5)cc3F)ccnc2cc1OCCN1CCS(=O)(=O)CC1` [Example 142, N-(4-((7-(2-(1,1-Dioxidothiomorpholino)ethoxy)-6-methoxyquinolin-4-yl)oxy)-3-fluorophenyl)-5-(4-fluorophenyl)-6-oxo-2,3,5,6-tetrahydrofuro[3,2-c]pyridine-7-carboxamide] had a pIC50 in experiment [1] of 9.00. For the same compound, in experiment [2], the cytotoxicity at 1 µM is 34% and the cytotoxicity at 5 µM came out at 40%. Also, in experiment [3], the cytotoxicity at 1 µM was 74% and the cytotoxicity at 5 µM was determined as 67.6%.

Regarding `COc1cc2c(Oc3ccc(NC(=O)c4c5c(cn(-c6ccc(F)cc6)c4=O)CCO5)cc3F)ccnc2cc1NC(=O)CN1CCOCC1` [Example 182, N-(3-Fluoro-4-((6-methoxy-7-(2-morpholinoacetamido)quinolin-4-yl)oxy)phenyl)-5-(4-fluorophenyl)-6-oxo-2,3,5,6-tetrahydrofuro[3,2-c]pyridine-7-carboxamide], the pIC50 in experiment [4] is 8.47; in experiment [1], 8.10. Also, the cytotoxicity at 1 µM is 25.1% in experiment [2] and 7.6% in experiment [5]. The cytotoxicity at 5 µM was 44.4% in experiment [2] and 10.2% in experiment [5].

As to `COc1cc2c(Oc3ccc(NC(=O)c4c5c(cn(-c6ccc(F)cc6)c4=O)CCO5)cc3F)ccnc2cc1NC(=O)CCN1CCOCC1` [Example 183, N-(3-Fluoro-4-((6-methoxy-7-(3-morpholinopropanamido)quinolin-4-yl)oxy)phenyl)-5-(4-fluorophenyl)-6-oxo-2,3,5,6-tetrahydrofuro[3,2-c]pyridine-7-carboxamide], the pIC50 in experiment [4] is 8.60; in experiment [1], 8.52. The cytotoxicity at 1 µM in experiment [2] was 27.3%; in experiment [5] it was 7.8%. For the same compound, the cytotoxicity at 5 µM amounted to 40.3% in experiment [2] and 87.5% in experiment [5].
